A word on the MIC: it is the lowest concentration that inhibits growth of the organism.

The test system of series [1] is Bacillus thuringiensis P86. Kind of series: MIC, agar well diffusion. The following applies: Bacillus thuringiensis P86 (thucin A1 producer strain), LB, lowest concentration forming a clear zone, highest concentration 60 μM. It is filed as cell-based. The protocol: (§1) Antibacterial activity against various indicator strains were determined by the agar well diffusion method. Briefly, each of the indicator strains (10^6 CFU/mL) was spread on a LB agar plate (45 °C) with wells (diameter = 6 mm). Then, 50 μL bacteriocin solution was added to the wells. The plate was kept at 4 °C for 2 h and subsequently incubated at a temperature suitable for the growth of the indicator strains for 12 h, followed by the measurement of inhibition zone to assess the antimicrobial activity.
(§2) The minimum inhibitory concentrations (MICs) of the bacteriocins against various indicator strains were determined by a previously described method. Briefly, the antimicrobial activities of different final concentrations bacteriocin solutions were measured by the agar well diffusion method described above. The MIC was defined at the lowest concentration of samples that could form a clear zone of inhibition.
(A growth-free zone around the sample is the usual read-out of agar diffusion tests.)

Another series concerns Bacillus subtilis 168. It counts as cell-based. The following applies: 168, 2 h. The protocol: as §1, §2
The test system of the next series is Bacillus siamensis HCX05. It counts as cell-based. The following applies: 2 h. As for the experimental part: as §1, §2
The test system of series [2] is Lysinibacillus fusiformis ZZY15-1. It counts as cell-based. The following applies: 2 h. The protocol: as §1, §2
In series [3] the test system is Listeria monocytogenes LM605. It is filed as cell-based. The following applies: LM605, 2 h. The protocol:
as §1, §2

In another series the test system is Rhodococcus sp. ZCH08. It is filed as cell-based. The following applies: 2 h. The protocol: as §1, §2
Series [4] deals with Staphylococcus succinus SYY04. It is filed as cell-based. As to conditions: 2 h. As for the experimental part:
as §1, §2

For a further series, the system named is Bacillus pumilus SCG1. It counts as cell-based. The following applies: 2 h. The protocol: as §1, §2
Series [5] concerns Glutamicibacter arilaitensis HCX33. It counts as cell-based. As to conditions: 2 h. The protocol:
as §1, §2

The next series relates to Bacillus subtilis Bsn5. It is filed as cell-based. The following applies: Bsn5, 2 h. The protocol: as §1, §2
In series [6] the test system is Staphylococcus aureus ATCC 43300. It counts as cell-based. The following applies: ATCC 43300, 2 h. As for the experimental part: as §1, §2
A further series has as its system Bacillus cereus UW85. It is filed as cell-based. As to conditions: UW85, 2 h. As for the experimental part: as §1, §2
A further series deals with Bacillus simplex SYY08. It is filed as cell-based. As to conditions: 2 h. As for the experimental part: as §1, §2
For series [7], the system named is Bacillus thuringiensis BMB171. It counts as cell-based. As to conditions: 2 h. As for the experimental part: as §1, §2
Series [8] concerns Listeria monocytogenes LM201. It is filed as cell-based. The following applies: LM201, 2 h. As for the experimental part: as §1, §2
For series [9], the system named is Bacillus cereus ATCC 14579. It counts as cell-based. The following applies: ATCC 14579, 12 h. As for the experimental part: as §1, §2
In the next series the test system is Bacillus firmus DS-1. It is filed as cell-based. As to conditions: 2 h. The protocol: as §1, §2
The next series concerns the target proteinase K (Parengyodontium album, UniProt P06873). Kind of series: Protease stability, residual antimicrobial activity. The following applies: 4× MIC mixed 1:1 (v/v) with proteinase K 1 mg/mL (≥ 40 U/mg), 37 °C, 2 h; agar well diffusion, B. cereus ATCC 14579; triplicate. It counts as in vitro ADME. As for the experimental part: as §1
Nisin A was commercial nisin A (Sigma-Aldrich, Shanghai, China) purified by HPLC as described above. The purity of nisin A and thucin A1 was all greater than 95% based on the ratio of absorption peak area at 210 nm. The stability assay was performed by previously described method with some modifications. To compare the pH stability of thucin A1 and nisin A, the bacteriocin solutions (1× , 2× , 4× , 8× MIC) were adjusted to pH 2.0, 3.0, 4.0, 5.0, 6.0, 7.0, 8.0, 9.0, 10.0, 11.0 and 12.0 with 0.5 M NaOH or 0.5 M HCl solution, followed by incubation at 37 °C for 4 h. The residual antimicrobial activity was tested after neutralizing the sample to pH 6.0. […] The indicator strain used in this experiment was B. cereus ATCC 14579 and the antimicrobial activity was determined with the agar well diffusion method as described above. […]

No end group written: not given here. *: point of attachment. For = O=C*

Sequence of proteinase K (P06873 106-384): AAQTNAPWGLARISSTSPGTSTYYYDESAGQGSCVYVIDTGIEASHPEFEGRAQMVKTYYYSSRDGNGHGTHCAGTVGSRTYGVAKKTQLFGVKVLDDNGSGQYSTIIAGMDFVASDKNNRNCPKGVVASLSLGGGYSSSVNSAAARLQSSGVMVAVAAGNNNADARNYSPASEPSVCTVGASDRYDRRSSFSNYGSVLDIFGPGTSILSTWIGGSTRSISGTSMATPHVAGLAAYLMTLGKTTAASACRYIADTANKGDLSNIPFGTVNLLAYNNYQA

For “For-MIAFLRIVAQLGARAARWAWANKDRVLGWIRDGMAIDWIINKINDMVS [Thucin A1]”, the minimum inhibitory concentration (MIC) stood at 7.5 µM in [1]; 3.75 µM in the series with Bacillus subtilis 168; 3.75 µM with Bacillus siamensis HCX05; 7.5 µM in series [2]; 0.47 µM in [3]; 15 µM against Rhodococcus sp. ZCH08. The minimum inhibitory concentration (MIC) came out at 15 µM in series [4]; 3.75 µM in the series with Bacillus pumilus SCG1; 7.5 µM in series [5]; 3.75 µM in the series with Bacillus subtilis Bsn5; 15 µM in series [6]; 1.88 µM in the series with Bacillus cereus UW85. Besides, the minimum inhibitory concentration (MIC) against Bacillus simplex SYY08 came to 1.88 µM; in series [7], 1.88 µM; in series [8], 0.47 µM; in series [9], 1.88 µM; against Bacillus firmus DS-1 it was 3.75 µM. Besides, on proteinase K, the “residual antimicrobial activity after digestion with proteinase K” value is on record as “completely lost its antimicrobial activity”.

The values are drawn from PMC9484092, “Three novel leaderless bacteriocins have antimicrobial activity against gram-positive bacteria to serve as promising food biopreservative” (Microbial Cell Factories, 2022).
